Test results from US6204293A, “Inhibitors of protein isoprenyl transferases” (University of Pittsburgh, priority 1998, dated 2001).
Where a name gives a salt, the structure may show the parent alone.

Molecular target: T1, Rat brain protein farnesyltransferase (Rattus norvegicus, UniProt Q02293+Q04631)
T1 construct: Rat brain protein farnesyltransferase activity is measured; from tissue; host or cells: rat brain
Test: % inhibition of farnesylation, scintillation proximity assay with biotin-K Ras B fragment
Format: biochemical
Settings: Table 1; 1 × 10^-5 M
Procedure, shortened: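 Scintillation proximity read-out of farnesylation, using a biotinylated K Ras B fragment (0.1 mM final) in place of biotin-lamin. Enzyme purified from rat brain; results given as % inhibition.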

T1 sequence (Q02293 whole entry, one chain of several): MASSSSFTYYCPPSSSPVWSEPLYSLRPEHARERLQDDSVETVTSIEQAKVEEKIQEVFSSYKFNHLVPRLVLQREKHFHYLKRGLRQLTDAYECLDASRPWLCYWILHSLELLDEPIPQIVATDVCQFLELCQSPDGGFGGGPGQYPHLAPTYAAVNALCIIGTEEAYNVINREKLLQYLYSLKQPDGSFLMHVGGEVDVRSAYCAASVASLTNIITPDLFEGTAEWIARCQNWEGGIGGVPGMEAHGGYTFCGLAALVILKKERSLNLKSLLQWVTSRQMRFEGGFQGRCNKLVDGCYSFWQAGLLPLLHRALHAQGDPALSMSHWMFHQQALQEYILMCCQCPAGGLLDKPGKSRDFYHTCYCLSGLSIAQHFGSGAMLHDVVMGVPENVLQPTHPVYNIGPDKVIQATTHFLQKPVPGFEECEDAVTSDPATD

% inhibition at 1 × 10^-5 M [%] | Structure (SMILES)
44 | CSCC[C@H](NC(=O)c1ccc(CNCC(C)(C)CN(C)C)cc1-c1ccccc1)C(=O)O [Example 639]

Same assay, conditions: Table 2; 1 × 10^-6 M

% inhibition at 1 × 10^-6 M [%] | Structure (SMILES)
96 | CSCC[C@H](NC(=O)c1ccc(CNCCC2CCCCC2)cc1-c1ccccc1C)C(=O)O.O=C(O)C(F)(F)F [Example 607]
94 | CSCC[C@H](NC(=O)c1ccc(CN(CCC2CCCCC2)C(=O)N(C)C)cc1-c1ccccc1C)C(=O)O [Example 610]
97 | CSCC[C@H](NC(=O)c1ccc(CN[C@H](C)CC2CCCCC2)cc1-c1ccccc1C)C(=O)O [Example 613]
99 | CSCC[C@H](NC(=O)c1ccc(CN[C@H](CO)CC2CCCCC2)cc1-c1ccccc1C)C(=O)O [Example 617]
98 | CCS(=O)(=O)C[C@H](CC1CCCCC1)NCc1ccc(C(=O)N[C@@H](CCSC)C(=O)O)c(-c2ccccc2C)c1 [Example 620]
61 | CSCC[C@H](NC(=O)c1ccc(CNCCS)cc1-c1ccccc1)C(=O)O [Example 626]
85 | CSCC[C@H](NC(=O)c1ccc(CNCCSC(C)(C)C)cc1-c1ccccc1)C(=O)O [Example 627]
43 | CSCC[C@H](NC(=O)c1ccc(CNCC(O)CO)cc1-c1ccccc1)C(=O)O (stereo partly drawn) [Example 632]
32 | CSCCC(CO)NCc1ccc(C(=O)N[C@@H](CCSC)C(=O)O)c(-c2ccccc2)c1 (stereo partly drawn) [Example 633]
72 | CSCC[C@H](NC(=O)c1ccc(CNCCN(C(C)C)C(C)C)cc1-c1ccccc1)C(=O)O [Example 636]
34 | CSCC[C@H](NC(=O)c1ccc(CNCCN2CCCC2)cc1-c1ccccc1)C(=O)O [Example 641]
48 | CSCC[C@H](NC(=O)c1ccc(CNc2ccccc2F)cc1-c1ccccc1)C(=O)O [Example 642]

Same assay, conditions: Table 3; 1 × 10^-7 M

% inhibition at 1 × 10^-7 M [%] | Structure (SMILES)
86 | CSCC[C@H](NC(=O)c1ccc(CN[C@@H](CO)C2CCCCC2)cc1-c1ccccc1C)C(=O)O [Example 604]
95 | CSCC[C@H](NC(=O)c1ccc(CN(CCC2CCCCC2)S(C)(=O)=O)cc1-c1ccccc1C)C(=O)O [Example 611]
94 | CCCC[C@H](CC1CCCCC1)NCc1ccc(C(=O)N[C@@H](CCSC)C(=O)O)c(-c2ccccc2C)c1 [Example 615]
89 | CSCC[C@H](NC(=O)c1ccc(CN[C@@H](CO)CC2CCCCC2)cc1-c1ccccc1C)C(=O)O [Example 618]
98 | CCS(=O)(=O)C[C@H](CC1CCCCC1)NCc1ccc(C(=O)N[C@@H](CCS(C)(=O)=O)C(=O)O)c(-c2ccccc2C)c1 [Example 621]
95 | CSCC[C@H](NC(=O)c1ccc(CN[C@H](CSC(C)(C)C)CC2CCCCC2)cc1-c1ccccc1C)C(=O)O [Example 622]
96 | CSCC[C@H](NC(=O)c1ccc(CN[C@H](CSc2ccccc2)CC2CCCCC2)cc1-c1ccccc1C)C(=O)O [Example 623]

Structure (SMILES) | % inhibition at 1 × 10^-7 M [%]
CSCC[C@H](NC(=O)c1ccc(CN(CCC2CCCCC2)C(C)=O)cc1-c1ccccc1C)C(=O)[O-].[Li+] [Example 609] | 95
CSCC[C@H](NC(=O)c1ccc(CNC(CC2CCCCC2)C2CCCCC2)cc1-c1ccccc1C)C(=O)[O-].[Li+] (stereo partly drawn) [Example 616] | 95

Same assay, conditions: Table 4; 1 × 10^-8 M

% inhibition at 1 × 10^-8 M [%] | Structure (SMILES)
91 | CSCC[C@H](NC(=O)c1ccc(CN(C)CCC2CCCCC2)cc1-c1ccccc1C)C(=O)[O-].[Li+] [Example 608]
96 | CSCC[C@H](NC(=O)c1ccc(CN(CCC2CCCCC2)S(=O)(=O)c2ccccc2)cc1-c1ccccc1C)C(=O)O [Example 612]
92 | CC[C@H](CC1CCCCC1)NCc1ccc(C(=O)N[C@@H](CCSC)C(=O)O)c(-c2ccccc2C)c1 [Example 614]
95 | C=C[C@H](CC1CCCCC1)NCc1ccc(C(=O)N[C@@H](CCSC)C(=O)O)c(-c2ccccc2C)c1 [Example 619]

Structure (SMILES) | % inhibition at 1 × 10^-8 M [%]
CSCC[C@H](NC(=O)c1ccc(CN(CCC2CCCCC2)Cc2ccccc2)cc1-c1ccccc1C)C(=O)[O-].[Li+] [Example 605] | 68

Same assay, conditions: read-out: % inhibition at 1 × 10^-6 M

Structure (SMILES) | inhibition at 1 µM [%]
CSCC[C@H](NC(=O)c1ccc(COCc2ccc3ccccc3c2)cc1-c1ccccc1C)C(=O)O [Example 583, N-[4-(naphth-2-ylmethoxymethyl)-2-(2-methylphenyl)benzoyl]methionine lithium salt] | 98
CSCC[C@H](NC(=O)c1ccc(COCCc2ccccc2)cc1-c1ccccc1C)C(=O)O [Example 587, N-[4-(2-phenylethoxymethyl)-2-(2-methylphenyl)benzoyl]methionine lithium salt] | 97
CSCC[C@H](NC(=O)c1ccc(COCCCc2ccccc2)cc1-c1ccccc1C)C(=O)O [Example 595, N-[4-(3-phenylpropoxymethyl)-2-(2-methylphenyl)benzoyl]methionine lithium salt] | 97

Same assay, conditions: read-out: % inhibition at 1 × 10^-6 M; Table 2; 1 × 10^-6 M

inhibition at 1 µM [%] | Structure (SMILES)
99 | CSCC[C@H](NC(=O)c1ccc(COCc2ccccc2)cc1-c1ccccc1C)C(=O)NS(=O)(=O)c1ccc(C)cc1 [Example 582, 4-methylbenzenesulfonyl N-2-[4-(benzyloxymethyl)-2-(2-methylphenyl)benzoyl]amino-4-methylthiobutanamide]

Same assay, conditions: read-out: % inhibition at 1 × 10^-7 M

Structure (SMILES) | inhibition at 0.1 µM [%]
CSCC[C@H](NC(=O)c1ccc(COCc2cccc3ccccc23)cc1-c1ccccc1C)C(=O)O [Example 584, N-[4-(naphth-1-ylmethoxymethyl)-2-(2-methylphenyl)benzoyl]methionine lithium salt] | 96
CSCC[C@H](NC(=O)c1ccc(COCC2CCCCC2)cc1-c1ccccc1C)C(=O)O [Example 585, N-[4-(cyclohexylmethoxymethyl)-2-(2-methylphenyl)benzoyl]methionine lithium salt] | 96
CSCC[C@H](NC(=O)c1ccc(COCCc2ccc(Cl)cc2)cc1-c1ccccc1C)C(=O)O [Example 590, N-[4-(2-(4-chlorophenyl)ethoxymethyl)-2-(2-methylphenyl)benzoyl]methionine lithium salt] | 95
CSCC[C@H](NC(=O)c1ccc(COCCc2cccc3ccccc23)cc1-c1ccccc1C)C(=O)O [Example 592, N-[4-(2-naphth-1-ylethoxymethyl)-2-(2-methylphenyl)benzoyl]methionine lithium salt] | 93
CSCC[C@H](NC(=O)c1ccc(COCCc2ccc3ccccc3c2)cc1-c1ccccc1C)C(=O)O [Example 593, N-[4-(2-naphth-2-ylethoxymethyl)-2-(2-methylphenyl)benzoyl]methionine lithium salt] | 86
CSCC[C@H](NC(=O)c1ccc(COCCC2CCCCC2)cc1-c1ccccc1C)C(=O)O [Example 594, N-[4-(2-cyclohexylethoxymethyl)-2-(2-methylphenyl)benzoyl]methionine lithium salt] | 95
CSCC[C@@H](C(=O)O)N(C)C(=O)c1ccc(COCCCC2CCCCC2)cc1-c1ccccc1C [Example 597, N-[4-(3-cyclohexylpropoxymethyl)-2-(2-methylphenyl)benzoyl]-N-methylmethionine lithium salt] | 75

Same assay, conditions: read-out: % inhibition at 1 × 10^-7 M; Table 3; 1 × 10^-7 M

inhibition at 0.1 µM [%] | Structure (SMILES)
90 | CSCC[C@H](NC(=O)c1ccc(COCc2ccccc2)cc1-c1ccccc1C)C(=O)NS(=O)(=O)c1ccccc1 [Example 580, Benzenesulfonyl N-2-[4-(benzyloxymethyl)-2-(2-methylphenyl)benzoyl]amino-4-methylthiobutanamide]
96 | CSCC[C@H](NC(=O)c1ccc(COCc2ccccc2)cc1-c1ccccc1C)C(=O)NS(=O)(=O)c1ccc(Cl)cc1 [Example 581, 4-chlorobenzenesulfonyl N-2-[4-(benzyloxymethyl)-2-(2-methylphenyl)benzoyl]amino-4-methylthiobutanamide]
91 | COc1ccccc1CCOCc1ccc(C(=O)N[C@@H](CCSC)C(=O)O)c(-c2ccccc2C)c1 [Example 589, N-[4-(2-(2-methoxyphenyl)ethoxymethyl)-2-(2-methylphenyl)benzoyl]methioninelithium salt]

Structure (SMILES) | inhibition at 0.1 µM [%]
CSCC[C@H](NC(=O)c1ccc(COCCCCC2CCCCC2)cc1-c1ccccc1C)C(=O)O [Example 600] | 93
CSCC[C@H](NC(=O)c1ccc(COCCCCc2ccccc2)cc1-c1ccccc1C)C(=O)O [Example 601] | 92

Same assay, conditions: read-out: % inhibition at 1 × 10^-8 M

Structure (SMILES) | inhibition at 0.01 µM [%]
CSCC[C@H](NC(=O)c1ccc(COCCc2ccccc2Cl)cc1-c1ccccc1C)C(=O)O [Example 588, N-[4-(2-(2-chlorophenyl)ethoxymethyl)-2-(2-methylphenyl)benzoyl]methionine lithium salt] | 68
CSCC[C@H](NC(=O)c1ccc(COCCc2ccc(Cl)cc2Cl)cc1-c1ccccc1C)C(=O)O [Example 591, N-[4-(2-(2,4-dichlorophenyl)ethoxymethyl)-2-(2-methylphenyl)benzoyl]methionine lithium salt] | 82
CSCC[C@H](NC(=O)c1ccc(COCCCC23CC4CC(CC(C4)C2)C3)cc1-c1ccccc1C)C(=O)O [Example 599, N-[4-(3-adamant-1-ylpropoxymethyl)-2-(2-methylphenyl)benzoyl]methionine lithium salt] | 86

Same assay, conditions: read-out: % inhibition at 1 × 10^-8 M; Table 4; 1 × 10^-8 M

inhibition at 0.01 µM [%] | Structure (SMILES)
90 | CSCC[C@H](NC(=O)c1ccc(CSCc2ccccc2)cc1-c1ccccc1C)C(=O)NS(=O)(=O)c1ccc(C)cc1 [Example 586, 4-methylbenzenesulfonyl N-2-[4-(benzylthiomethyl)-2-(2-methylphenyl)benzoyl]amino-4-methylthiobutanamide]
93 | CCSC[C@H](CC1CCCCC1)OCc1ccc(C(=O)N[C@@H](CCSC)C(=O)O)c(-c2ccccc2C)c1 [Example 606, Lithium Salt]
